Where a name gives a salt, the structure may show the parent alone.

In one assay the target is human SPR (Homo sapiens (Human), UniProt P35270). Nature of the assay: Evaluation Example 2: Measurement of human SPR inhibitory activity (seven concentrations, sepiapterin absorbance at 420 nm). It is filed as biochemical. The note with it: Evaluation Example 2, seven concentrations 0.14 nM to 100 nM, 240 minutes at room temperature, hydrochloride, read-out: IC50. The gist of the method: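 His-tagged full-length human SPR (1-261) was expressed in E. coli and the tag removed. Enzyme at 150 ng/mL in 100 mM Tris-HCl pH 7.5/0.01% BSA was mixed with compound (0.14–100 nM, seven points), 120 μM sepiapterin and 160 μM NADPH, both as added-solution concentrations. After 240 min at room temperature, remaining sepiapterin was read at 420 nm to give percent inhibition.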
human SPR, sequence (P35270 whole entry): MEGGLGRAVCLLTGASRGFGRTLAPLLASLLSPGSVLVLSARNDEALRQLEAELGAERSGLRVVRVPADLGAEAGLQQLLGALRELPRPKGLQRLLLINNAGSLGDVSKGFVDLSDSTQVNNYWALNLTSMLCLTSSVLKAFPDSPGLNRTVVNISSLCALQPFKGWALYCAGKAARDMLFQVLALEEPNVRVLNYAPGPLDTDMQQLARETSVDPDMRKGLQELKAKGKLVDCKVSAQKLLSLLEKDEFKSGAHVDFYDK
Turning to `CC(C)(C)Cn1c(=O)c(C(=O)NC2CC2)c(O)n2nc(N)cc12` [Synthesis Example 4, 2-Amino-N-cyclopropyl-7-hydroxy-4-neopentyl-5-oxo-4,5-dihydropyrazolo[1,5-a]pyrimidine-6-carboxamide hydrochloride], the IC50 is 0.9 nM.

Still in this assay, the particulars now being: Evaluation Example 2, seven concentrations 0.14 nM to 100 nM, 240 minutes at room temperature, read-out: IC50.
With `Cc1nn2c(O)c(C(=O)NC3CC3)c(=O)n(CC(C)C)c2c1/C=C/C(=O)N1CCOCC1(C)C` [Synthesis Example 656, (E)-N-Cyclopropyl-3-(3-(3,3-dimethylmorpholino)-3-oxoprop-1-en-1-yl)-7-hydroxy-4-isobutyl-2-methyl-5-oxo-4,5-dihydropyrazolo[1,5-a]pyrimidine-6-carboxamide], the IC50 was determined as 1.15 nM.

Take `COc1nccc(Nc2cc3n(CC(C)(C)C)c(=O)c(C(=O)NC4CC4)c(O)n3n2)n1` [Synthesis Example 332, N-Cyclopropyl-7-hydroxy-2-((2-methoxypyrimidin-4-yl)amino)-4-neopentyl-5-oxo-4,5-dihydropyrazolo[1,5-a]pyrimidine-6-carboxamide]: the IC50 came out at 2.06 nM.

Turning to `Cc1nn2c(O)c(C(=O)NC3CC3)c(=O)n(CC(C)C)c2c1/C=C/C(=O)N1CCC[C@@H]1C(C)(C)O` [compound 611, (R,E)-N-Cyclopropyl-7-hydroxy-3-(3-(2-(2-hydroxypropan-2-yl)pyrrolidin-1-yl)-3-oxoprop-1-en-1-yl)-4-isobutyl-2-methyl-5-oxo-4,5-dihydropyrazolo[1,5-a]pyrimidine-6-carboxamide], the IC50 was found to be 1.22 nM.

`CC(C)(C)Cn1c(=O)c(C(=O)NC2CC2)c(O)n2nc3c(c12)CCN3C(N)=O` [Synthesis Example 397, N6-Cyclopropyl-7-hydroxy-4-neopentyl-5-oxo-2,3,4,5-tetrahydro-1H-pyrrolo[2′,3′:3,4]pyrazolo[1,5-a]pyrimidine-1,6-dicarboxamide]: the IC50 came to 1.75 nM.

As for `CC(C)Cn1c(=O)c(C(=O)NC2CC2)c(O)n2ncc(/C=C/C(=O)N3CCC(F)(F)CC3)c12` [compound 464, (E)-N-Cyclopropyl-3-(3-(4,4-difluoropiperidin-1-yl)-3-oxoprop-1-en-1-yl)-7-hydroxy-4-isobutyl-5-oxo-4,5-dihydropyrazolo[1,5-a]pyrimidine-6-carboxamide], the IC50 is 0.8 nM.

`O=C(NC1CC1)c1c(O)n2ncc(/C=C/C(=O)N3C[C@H]4C[C@@H]3CO4)c2n(CC2(F)CC2)c1=O` [Synthesis Example 377]: the IC50 turned out to be 0.78 nM.

On to `CC(C)Cn1c(=O)c(C(=O)NC2CC2)c(O)n2ncc(/C=C/C(=O)N3CCCCO3)c12` [compound 535, (E)-3-(3-(1,2-Oxazinan-2-yl)-3-oxoprop-1-en-1-yl)-N-cyclopropyl-7-hydroxy-4-isobutyl-5-oxo-4,5-dihydropyrazolo[1,5-a]pyrimidine-6-carboxamide], for which the IC50 stood at 0.92 nM.

For `Cc1nn2c(O)c(C(=O)NC3CC3)c(=O)n(CC(C)C)c2c1/C=C/C(=O)N1CCC(F)(F)CC1` [compound 579, (E)-N-Cyclopropyl-3-(3-(4,4-difluoropiperidin-1-yl)-3-oxoprop-1-en-1-yl)-7-hydroxy-4-isobutyl-2-methyl-5-oxo-4,5-dihydropyrazolo[1,5-a]pyrimidine-6-carboxamide], the IC50 worked out at 0.87 nM.

In the case of `CC(C)Cn1c(=O)c(C(=O)NC2CC2)c(O)n2ncc(/C=C/C(=O)N3CCC(C(C)C)CC3)c12` [compound 473, (E)-N-Cyclopropyl-7-hydroxy-4-isobutyl-3-(3-(4-isopropylpiperidin-1-yl)-3-oxoprop-1-en-1-yl)-5-oxo-4,5-dihydropyrazolo[1,5-a]pyrimidine-6-carboxamide], the IC50 was 2.11 nM.

On to `COC[C@H]1CCN(C(=O)/C=C/c2c(C)nn3c(O)c(C(=O)NC4CC4)c(=O)n(CC(C)C)c23)C1` [Synthesis Example 620, (S,E)-N-Cyclopropyl-7-hydroxy-4-isobutyl-3-(3-(3-(methoxymethyl)pyrrolidin-1-yl)-3-oxoprop-1-en-1-yl)-2-methyl-5-oxo-4,5-dihydropyrazolo[1,5-a]pyrimidine-6-carboxamide], for which the IC50 turned out to be 1.17 nM.

Take `COC(=O)Nc1nn2c(O)c(C(=O)NC3CC3)c(=O)n(CC(C)C)c2c1/C=C/C(=O)N1CCOCC1` [Synthesis Example 425, Methyl (E)-(6-(cyclopropylcarbamoyl)-7-hydroxy-4-isobutyl-3-(3-morpholino-3-oxoprop-1-en-1-yl)-5-oxo-4,5-dihydropyrazolo[1,5-a]pyrimidin-2-yl)carbamate]: the IC50 amounted to 0.77 nM.

In the case of `CC(C)(C)Cn1c(=O)c(C(=O)NC2CC2)c(O)n2nc(-c3[nH]ncc3C(=O)N3CCOCC3)cc12` [Synthesis Example 311, N-Cyclopropyl-7-hydroxy-2-(4-(morpholine-4-carbonyl)-1H-pyrazol-5-yl)-4-neopentyl-5-oxo-4,5-dihydropyrazolo[1,5-a]pyrimidine-6-carboxamide], the IC50 amounted to 1.21 nM.

Consider `NC(=O)c1cc2n(CC3CCC(F)(F)CC3)c(=O)c(C(=O)NC3CC3)c(O)n2n1` [Synthesis Example 276, N6-Cyclopropyl-4-((4,4-difluorocyclohexyl)methyl)-7-hydroxy-5-oxo-4,5-dihydropyrazolo[1,5-a]pyrimidine-2,6-dicarboxamide], for which the IC50 came out at 0.68 nM.

With `Nc1ncccc1-c1cc2n(CC3CCOCC3)c(=O)c(C(=O)NC3CC3)c(O)n2n1` [Synthesis Example 290, 2-(2-Aminopyridin-3-yl)-N-cyclopropyl-7-hydroxy-5-oxo-4-((tetrahydro-2H-pyran-4-yl)methyl)-4,5-dihydropyrazolo[1,5-a]pyrimidine-6-carboxamide], the IC50 is 0.93 nM.

For the molecule `CC(C)(C)Cn1c(=O)c(C(=O)NC2CC2)c(O)n2nc(Nc3cnc(C(=O)NCC(F)(F)F)cn3)cc12` [Synthesis Example 352, N-Cyclopropyl-7-hydroxy-4-neopentyl-5-oxo-2-((5-((2,2,2-trifluoroethyl)carbamoyl)pyrazin-2-yl)amino)-4,5-dihydropyrazolo[1,5-a]pyrimidine-6-carboxamide], the IC50 amounted to 1.04 nM.

As to `CC[C@H]1COCCN1C(=O)/C=C/c1cnn2c(O)c(C(=O)NC3CC3)c(=O)n(CC(C)C)c12` [compound 544, (S,E)-N-Cyclopropyl-3-(3-(3-ethylmorpholino)-3-oxoprop-1-en-1-yl)-7-hydroxy-4-isobutyl-5-oxo-4,5-dihydropyrazolo[1,5-a]pyrimidine-6-carboxamide], the IC50 was determined as 0.95 nM.

In the case of `CC(C)Cn1c(=O)c(C(=O)NC2CC2)c(O)n2ncc(/C=C/C(=O)N3CC4C(C3)C4(F)F)c12` (stereo not shown) [compound 511, (E)-N-Cyclopropyl-3-(3-(6,6-difluoro-3-azabicyclo[3.1.0]hexan-3-yl)-3-oxoprop-1-en-1-yl)-7-hydroxy-4-isobutyl-5-oxo-4,5-dihydropyrazolo[1,5-a]pyrimidine-6-carboxamide], the IC50 was 1.07 nM.

In the case of `CC(C)Cn1c(=O)c(C(=O)NC2CC2)c(O)n2ncc(/C=C/C(C)(C)O)c12` [Synthesis Example 265, (E)-N-Cyclopropyl-7-hydroxy-3-(3-hydroxy-3-methylbut-1-en-1-yl)-4-isobutyl-5-oxo-4,5-dihydropyrazolo[1,5-a]pyrimidine-6-carboxamide], the IC50 was determined as 0.68 nM.

The same assay, now with this note: sepiapterin absorbance, Table 41, read-out: concentration at 50% inhibition of human SPR (IC50).
Regarding `COC[C@H]1COCCN1C(=O)/C=C/c1c(C)nn2c(O)c(C(=O)NC3CC3)c(=O)n(CC(C)C)c12` [Synthesis Example 683, (S,E)-N-Cyclopropyl-7-hydroxy-4-isobutyl-3-(3-(3-(methoxymethyl)morpholino)-3-oxoprop-1-en-1-yl)-2-methyl-5-oxo-4,5-dihydropyrazolo[1,5-a]pyrimidine-6-carboxamide], the IC50 is 0.82 nM.

On to `CC(C)Cn1c(=O)c(C(=O)NC2CC2)c(O)n2ncc(/C=C/C(=O)N(C)Cc3cccnc3)c12` [Synthesis Example 712, (E)-N-Cyclopropyl-7-hydroxy-4-isobutyl-3-(3-(methyl(pyridin-3-ylmethyl)amino)-3-oxoprop-1-en-1-yl)-5-oxo-4,5-dihydropyrazolo[1,5-a]pyrimidine-6-carboxamide], for which the IC50 was determined as 1.19 nM.

As for `Cc1nn2c(O)c(C(=O)NC3CC3)c(=O)n(CC(C)C)c2c1/C=C/C(=O)N1CCOCC12CC2` [Synthesis Example 706, (E)-N-Cyclopropyl-7-hydroxy-4-isobutyl-2-methyl-5-oxo-3-(3-oxo-3-(7-oxa-4-azaspiro[2.5]octan-4-yl)prop-1-en-1-yl)-4,5-dihydropyrazolo[1,5-a]pyrimidine-6-carboxamide], the IC50 stood at 0.82 nM.

Consider `Cc1nn2c(O)c(C(=O)NC3CC3)c(=O)n(CC(C)C)c2c1/C=C/C(=O)N1CCC(C#N)CC1` [Synthesis Example 684, (E)-3-(3-(4-Cyanopiperidin-1-yl)-3-oxoprop-1-en-1-yl)-N-cyclopropyl-7-hydroxy-4-isobutyl-2-methyl-5-oxo-4,5-dihydropyrazolo[1,5-a]pyrimidine-6-carboxamide], for which the IC50 came out at 0.89 nM.

Take `CC(C)Cn1c(=O)c(C(=O)NC2CC2)c(O)n2ncc(/C=C/C(=O)N3CCCC34CCN(C(C)C)CC4)c12` [Synthesis Example 746, (E)-N-Cyclopropyl-7-hydroxy-4-isobutyl-3-(3-(8-isopropyl-1,8-diazaspiro[4.5]decan-1-yl)-3-oxoprop-1-en-1-yl)-5-oxo-4,5-dihydropyrazolo[1,5-a]pyrimidine-6-carboxamide]: the IC50 was found to be 1.54 nM.

For `CC(C)Cn1c(=O)c(C(=O)NC2CC2)c(O)n2ncc(/C=C/C(=O)N3CCc4cc(F)ccc43)c12` [Synthesis Example 731, (E)-N-Cyclopropyl-3-(3-(5-fluoroindolin-1-yl)-3-oxoprop-1-en-1-yl)-7-hydroxy-4-isobutyl-5-oxo-4,5-dihydropyrazolo[1,5-a]pyrimidine-6-carboxamide], the IC50 was 2.89 nM.
